Source: ChEMBL document CHEMBL5120838, “Synthesis and biological evaluation of geniposide derivatives as inhibitors of hyperuricemia, inflammatory and fibrosis” (Eur J Med Chem, 2022)
The source made the active and inactive calls. The rule behind the calls is not given here.

Legend:
[1] = system: HK-2; assay: Antiinflammatory activity in hyperuricemic human HK-2 cells assessed as reduction in IL-1beta level at 12.5 to 100 uM; type: functional, cell-based; details: dose 12.5-100 µM
[2] = system: Mus musculus; assay: Renal protective activity against po dosed adenine and potassium oxonate-induced hyperuricemia Kunming mouse model assessed as reduction in urate accumulation in kidney administered via gavage for 2 weeks by polarization microscopic analysis; type: functional, organism-based; details: dose 5-20 mg/kg, DDE = dose-dependent effect
[3] = system: HK-2; assay: Antiinflammatory activity in hyperuricemic human HK-2 cells assessed as reduction in TNF-alpha level at 12.5 to 100 uM; type: functional, cell-based; details: dose 12.5-100 µM
[4] = system: Mus musculus; assay: Renal protective activity against adenine and potassium oxonate-induced hyperuricemia Kunming mouse model assessed as reduction in IL-1beta expression in kidney at 5 to 20 mg/kg, po administered via gavage for 2 weeks by ELISA relative to control; type: functional; parameters: scale not given: the % may be the effect or the level left; details: dose 5-20 mg/kg
[5] = system: Mus musculus; assay: (§1) Nephroprotective activity against adenine and potassium oxonate-induced hyperuricemia Kunming mouse model assessed as reduction in connective tissue hyperplasia at 20 mg/kg, po administered via gavage and measured after 21 days by hematoxylin-eosin and Masson trichrome staining based optical microscopic analysis; type: functional, organism-based; details: time 21.0 day
[6] = system: Mus musculus; assay: Anti-hyperuricemic activity against adenine and potassium oxonate-induced hyperuricemia Kunming mouse model assessed as blood urea nitrogen level at 20 mg/kg, po administered via gavage once daily for 2 weeks (reference value: 9.88 +/- 1.21 mM); type: functional
[7] = system: Mus musculus; assay: Renal protective activity against adenine and potassium oxonate-induced hyperuricemia Kunming mouse model assessed as reduction in renal inflammation by measuring reduction in TNF-alpha expression at 5 to 20 mg/kg, po administered via gavage for 2 weeks by Western blot analysis; type: functional, organism-based; details: dose 5-20 mg/kg
[8] = system: Mus musculus; assay: as §1, with “neutrophils infiltrations” for “connective tissue hyperplasia”; type: functional, organism-based; details: time 21.0 day
[9] = system: Mus musculus; assay: Anti-hyperuricemic activity against adenine and potassium oxonate-induced hyperuricemia Kunming mouse model assessed as blood urea nitrogen level at 5 mg/kg, po administered via gavage once daily for 4 weeks (reference value: 15.25 +/- 1.21 mM); type: functional
[10] = system: Mus musculus; assay: Renal protective activity against adenine and potassium oxonate-induced hyperuricemia Kunming mouse model assessed as reduction in renal inflammation by measuring reduction in IkappaBalpha expression at 5 to 20 mg/kg, po administered via gavage for 2 weeks by Western blot analysis; type: functional, organism-based; details: dose 5-20 mg/kg
[11] = system: Mus musculus; assay: (§2) Renal protective activity against adenine and potassium oxonate-induced hyperuricemia Kunming mouse model assessed as reduction in hyperuricemia-induced renal fibrosis by measuring reduction in collagen-1 expression in kidney at 5 to 20 mg/kg, po administered via gavage for 2 weeks by immunoblot analysis; type: functional, organism-based; details: dose 5-20 mg/kg
[12] = system: Mus musculus; assay: Renal protective activity against adenine and potassium oxonate-induced hyperuricemia Kunming mouse model assessed as reduction in renal inflammation by measuring reduction in TLR4 expression at 5 to 20 mg/kg, po administered via gavage for 2 weeks by Western blot analysis; type: functional, organism-based; details: dose 5-20 mg/kg
[13] = system: HK-2; assay: Cytoprotective activity in human HK-2 cells assessed as reduction in uric acid-induced cell remodeling by inverted light microscopic analysis; type: functional, cell-based; details: dose 12.5-100 µM
[14] = Stability in simulated intestinal fluid assessed as parent compound remaining incubated for 4 hrs by HPLC analysis; type: ADME; details: read-out: Stability
[15] = molecular target: T1, Xanthine dehydrogenase/oxidase (Bos taurus, UniProt P80457); assay: Inhibition of bovine XOD assessed as inhibition of uric acid formation using xanthine as substrate preincubated with enzyme for 5 mins followed by substrate addition and measured for 30 mins by microplate reader analysis
T1 sequence (P80457 whole entry): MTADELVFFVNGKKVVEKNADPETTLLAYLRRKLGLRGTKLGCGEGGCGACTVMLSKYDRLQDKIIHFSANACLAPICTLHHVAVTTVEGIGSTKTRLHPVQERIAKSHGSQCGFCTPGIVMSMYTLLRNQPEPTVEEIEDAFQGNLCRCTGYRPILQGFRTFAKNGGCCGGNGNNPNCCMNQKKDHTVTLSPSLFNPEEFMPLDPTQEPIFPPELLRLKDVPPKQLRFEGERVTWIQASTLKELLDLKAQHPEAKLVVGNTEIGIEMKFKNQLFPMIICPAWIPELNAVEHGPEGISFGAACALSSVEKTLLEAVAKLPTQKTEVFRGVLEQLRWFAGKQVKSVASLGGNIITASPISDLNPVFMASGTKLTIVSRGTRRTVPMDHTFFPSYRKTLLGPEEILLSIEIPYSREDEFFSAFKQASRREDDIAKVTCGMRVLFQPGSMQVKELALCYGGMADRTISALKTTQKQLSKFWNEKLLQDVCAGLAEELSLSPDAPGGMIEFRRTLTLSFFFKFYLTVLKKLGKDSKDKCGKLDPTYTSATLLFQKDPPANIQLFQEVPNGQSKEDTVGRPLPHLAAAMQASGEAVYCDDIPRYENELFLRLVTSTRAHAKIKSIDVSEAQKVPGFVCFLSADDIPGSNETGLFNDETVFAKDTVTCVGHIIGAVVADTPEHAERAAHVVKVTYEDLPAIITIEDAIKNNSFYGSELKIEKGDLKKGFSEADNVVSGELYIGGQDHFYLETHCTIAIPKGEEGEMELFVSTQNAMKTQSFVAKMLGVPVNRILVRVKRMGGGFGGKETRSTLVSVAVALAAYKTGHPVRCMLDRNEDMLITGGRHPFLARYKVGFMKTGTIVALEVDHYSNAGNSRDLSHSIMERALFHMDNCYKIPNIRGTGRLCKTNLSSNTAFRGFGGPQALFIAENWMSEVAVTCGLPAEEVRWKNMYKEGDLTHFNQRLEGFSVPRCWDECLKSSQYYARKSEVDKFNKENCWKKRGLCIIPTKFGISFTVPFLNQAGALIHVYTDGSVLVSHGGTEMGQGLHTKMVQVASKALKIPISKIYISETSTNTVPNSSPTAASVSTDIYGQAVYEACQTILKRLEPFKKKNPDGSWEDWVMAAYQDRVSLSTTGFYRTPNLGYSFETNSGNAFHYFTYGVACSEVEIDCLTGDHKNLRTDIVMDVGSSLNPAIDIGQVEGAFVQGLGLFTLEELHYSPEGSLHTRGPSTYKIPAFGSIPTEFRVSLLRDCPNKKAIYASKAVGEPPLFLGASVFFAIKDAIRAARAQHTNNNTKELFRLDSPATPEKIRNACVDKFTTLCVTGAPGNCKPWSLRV

[16] = system: Mus musculus; assay: Anti-hyperuricemic activity against adenine and potassium oxonate-induced hyperuricemia Kunming mouse model assessed as reduction in serum uric acid level at 10 mg/kg, po administered via gavage once daily for 4 weeks (reference value: 356.15 +/- 3.31 uM); type: functional
[17] = system: Mus musculus; assay: Anti-hyperuricemic activity against adenine and potassium oxonate-induced hyperuricemia Kunming mouse model assessed as reduction in creatinine level at 10 mg/kg, po administered via gavage once daily for 4 weeks (reference value: 76.87 +/- 0.67 uM); type: functional
[18] = system: Mus musculus; assay: as §2, with “alpha-SMA” for “collagen-1”; type: functional, organism-based; details: dose 5-20 mg/kg
[19] = system: Mus musculus; assay: as §1, with “tubular-interstitial lesion development” for “connective tissue hyperplasia”; type: functional, organism-based; details: time 21.0 day
[20] = system: Mus musculus; assay: Renal protective activity against adenine and potassium oxonate-induced hyperuricemia Kunming mouse model assessed as reduction in renal inflammation by measuring reduction in NF-kappaB expression at 5 to 20 mg/kg, po administered via gavage for 2 weeks by Western blot analysis; type: functional, organism-based; details: dose 5-20 mg/kg
[21] = system: Mus musculus; assay: Renal protective activity against adenine and potassium oxonate-induced hyperuricemia Kunming mouse model assessed as reduction in IL-8 expression in kidney at 5 to 20 mg/kg, po administered via gavage for 2 weeks by ELISA relative to control; type: functional; parameters: scale not given: the % may be the effect or the level left; details: dose 5-20 mg/kg
[22] = Stability in simulated gastric fluid assessed as parent compound remaining incubated for 4 hrs by HPLC analysis; type: ADME; details: read-out: Stability
[23] = system: Mus musculus; assay: In vivo inhibition of XOD in po dosed adenine and potassium oxonate-induced hyperuricemia Kunming mouse model assessed as reduction in XOD activity in liver administered via gavage once daily for 2 weeks; type: functional, organism-based; details: dose 5-20 mg/kg, DDE = dose-dependent effect
[24] = system: Mus musculus; assay: as §1, with “renal tubule dilation” for “connective tissue hyperplasia”; type: functional, organism-based; details: time 21.0 day
[25] = molecular target: T1, Xanthine dehydrogenase/oxidase; assay: Mixed type inhibition of bovine XOD assessed as decrease in Vmax with increase in Km at upto 20 uM using varying levels of xanthine as substrate by Lineweaver-Burk plot analysis; details: cattle
[26] = system: Mus musculus; assay: Anti-hyperuricemic activity against adenine and potassium oxonate-induced hyperuricemia Kunming mouse model assessed as reduction in serum uric acid level at 5 mg/kg, po administered via gavage once daily for 4 weeks (reference value: 356.15 +/- 3.31 uM); type: functional
[27] = system: Mus musculus; assay: Anti-hyperuricemic activity against adenine and potassium oxonate-induced hyperuricemia Kunming mouse model assessed as reduction in serum uric acid level at 20 mg/kg, po administered via gavage once daily for 2 weeks (reference value: 318.16 +/- 3.31 uM); type: functional
[28] = system: HK-2; assay: Inhibition of epithelial-mesenchymal transition in human HK-2 cells assessed as downregulation of uric acid-induced alpha-SMA protein expression by Western blot analysis; type: functional, cell-based; details: dose 12.5-100 µM, DDE = dose-dependent effect
[29] = system: Mus musculus; assay: Anti-hyperuricemic activity against adenine and potassium oxonate-induced hyperuricemia Kunming mouse model assessed as reduction in creatinine level at 5 mg/kg, po administered via gavage once daily for 4 weeks (reference value: 76.87 +/- 0.67 uM); type: functional
[30] = system: Mus musculus; assay: Renal protective activity against adenine and potassium oxonate-induced hyperuricemia Kunming mouse model assessed as reduction in TNF-alpha expression in kidney at 5 to 20 mg/kg, po administered via gavage for 2 weeks by ELISA; type: functional, organism-based; details: dose 5-20 mg/kg
[31] = system: Mus musculus; assay: Anti-hyperuricemic activity against adenine and potassium oxonate-induced hyperuricemia Kunming mouse model assessed as reduction in serum creatinine level at 20 mg/kg, po administered via gavage once daily for 2 weeks (reference value: 87.62 +/- 0.67 uM); type: functional
[32] = system: Mus musculus; assay: Anti-hyperuricemic activity against adenine and potassium oxonate-induced hyperuricemia Kunming mouse model assessed as blood urea nitrogen level at 10 mg/kg, po administered via gavage once daily for 4 weeks (reference value: 15.25 +/- 1.21 mM); type: functional
[33] = system: Mus musculus; assay: (§3) Renal protective activity against adenine and potassium oxonate-induced hyperuricemia Kunming mouse model assessed as reduction in extracellular matrix protein deposition by measuring interstitial expansion with collagen accumulation at 5 to 20 mg/kg, po administered via gavage for 2 weeks by Masson trichrome staining based optical microscopic analysis; type: functional, organism-based; details: dose 5-20 mg/kg
[34] = system: Mus musculus; assay: Renal protective activity against po dosed adenine and potassium oxonate-induced hyperuricemia Kunming mouse model assessed as reduction in TGF-beta1 expression in kidney administered via gavage for 2 weeks by immunohistochemical staining based optical microscopic analysis; type: functional, organism-based; details: dose 5-20 mg/kg, DDE = dose-dependent effect
[35] = system: Mus musculus; assay: Anti-hyperuricemic activity against adenine and potassium oxonate-induced hyperuricemia Kunming mouse model assessed as blood urea nitrogen level at 20 mg/kg, po administered via gavage once daily for 4 weeks (reference value: 15.25 +/- 1.21 mM); type: functional
[36] = system: Mus musculus; assay: as §1, with “appearance of clear tubular structures” for “reduction in connective tissue hyperplasia”; type: functional, organism-based; details: time 21.0 day
[37] = system: Mus musculus; assay: as §1, with “cytoplasmic vacuolation of renal tubular epithelial cells” for “connective tissue hyperplasia”; type: functional, organism-based; details: time 21.0 day
[38] = system: HK-2; assay: Inhibition of epithelial-mesenchymal transition in human HK-2 cells assessed as downregulation of uric acid-induced collagen-1 protein expression by Western blot analysis; type: functional, cell-based; details: dose 12.5-100 µM, DDE = dose-dependent effect
[39] = system: Mus musculus; assay: Anti-hyperuricemic activity against adenine and potassium oxonate-induced hyperuricemia Kunming mouse model assessed as reduction in serum uric acid level at 20 mg/kg, po administered via gavage once daily for 4 weeks (reference value: 356.15 +/- 3.31 uM); type: functional
[40] = system: Mus musculus; assay: Anti-hyperuricemic activity against adenine and potassium oxonate-induced hyperuricemia Kunming mouse model assessed as reduction in creatinine level at 20 mg/kg, po administered via gavage once daily for 4 weeks (reference value: 76.87 +/- 0.67 uM); type: functional
[41] = system: Mus musculus; assay: as §3, with “hyperuricemia-induced renal fibrosis” for “extracellular matrix protein deposition”, “tubular dilation” for “interstitial expansion”, “epithelial atrophy” for “collagen accumulation”; type: functional, organism-based; details: dose 5-20 mg/kg
[42] = system: HK-2; assay: Antiinflammatory activity in hyperuricemic human HK-2 cells assessed as reduction in TGF-beta level at 12.5 to 100 uM; type: functional, cell-based; details: dose 12.5-100 µM
[43] = system: HK-2; assay: Cytoprotective activity in human HK-2 cells assessed as reduction in uric acid-induced increase in branches and intracellular space by inverted light microscopic analysis; type: functional, cell-based; details: dose 12.5-100 µM

Q: Which results are given for `CC(=O)OCC1=CC[C@@H]2C(C(=O)Nc3ncco3)=CO[C@@H](O[C@@H]3O[C@H](COC(C)=O)[C@@H](OC(C)=O)[C@H](OC(C)=O)[C@H]3OC(C)=O)[C@H]12`?
A: Activity [1]: Active; Activity [2]: Dde; Activity [3]: Active; Activity [4]: >50%; Activity [5]: Active; Activity [6]: 5.62 mM; Activity [7]: Active; Activity [8]: Active; Activity [9]: 10.05 mM; Activity [10]: Active; Activity [11]: Active; Activity [12]: Active; Activity [13]: Active; remaining at 4 h [14]: 53.3%; IC50 [15]: 1.37 µM; Activity [16]: 188.16 µM; Activity [17]: 47.17 µM; Activity [18]: Active; Activity [19]: Active; Activity [20]: Active; Activity [21]: >50%; remaining at 4 h [22]: 47.6%; inhibition [23]: Dde; Activity [24]: Active; inhibition (INH) [25]: Active; Activity [26]: 198.27 µM; Activity [27]: 235.87 µM; inhibition [28]: Dde; Activity [29]: 54.79 µM; Activity [30]: Active; Activity [31]: 29.08 µM; Activity [32]: 8.82 mM; Activity [33]: Active; Activity [34]: Dde; Activity [35]: 8.02 mM; Activity [36]: Active; Activity [37]: Active; inhibition [38]: Dde; Activity [39]: 182.66 µM; Activity [40]: 38.81 µM; Activity [41]: Active; Activity [42]: Active; Activity [43]: Active
